Like-named read-outs stand apart in the source and are kept apart here.
Key:
[1] = tested on: chicken lymphocytes
[2] = tested on: weaned piglets; conditions: pig, in vivo

| Structure (SMILES) | concentration without any adverse effect on the cell activity ([1]; checking after 28 and after 44 hours) | concentration without apparent change of proliferation foci / no negative effects on the cell culture ([1]; checking after 20 hours, listed as DOM) | concentration without apparent change of proliferation foci / no negative effects on the cell culture ([1]; checking after 20 hours, listed as deepoxymetabolite) | FCR [2] | Feedstuff intake/animal/day [2] | Losses (total) [2] | Weight increase/animal/day [2] | action on the cell culture [1] | concentration from which a marked adverse effect on the cell activity is present ([1]; checking after 20 hours) |
| --- | --- | --- | --- | --- | --- | --- | --- | --- | --- |
| C=C1[C@@H]2O[C@@H]3C=C(C)C(=O)[C@@H](O)[C@]3(CO)[C@@]1(C)C[C@H]2O [DOM-1] | 58 µg/mL | ≤ 58 µg/mL | 58 µg/mL | – | – | – | – | – | – |
| CC1=C[C@H]2O[C@@H]3[C@H](O)C[C@](C)([C@@]2(CO)[C@H](O)C1=O)[C@]31CO1 [DON, deoxynivalenol] | – | – | – | 1.79 | 226.3 | 0 | 126.2 g | marked damage to the cells | ≥ 0.625 µg/mL |

Source: US7347997B1, “Method of using a feedstuff additive” (priority 1998, dated 2008)
